Laboratory results from ChEMBL document CHEMBL1201861, “Genomics of Drug Sensitity in Cancer screening data, Wellcome Trust Sanger Institute”.

Tests used:
Assay in all cases: cells
JVM-2 = format: functional, cell-based; conditions: Homo sapiens;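 note: growth inhibition of JVM-2 cells determined by a cell viability assay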
Description: SANGER: Inhibition of human JVM-2 cell growth in a cell viability assay.

HCC1569 = format: functional, cell-based, Homo sapiens; conditions: Homo sapiens, HCC1569;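 note: growth inhibition of human HCC1569 cells, read out with a cell viability assay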
Description: SANGER: Inhibition of human HCC1569 cell growth in a cell viability assay.

SAOS-2 = format: functional, cell-based, Homo sapiens; conditions: Homo sapiens, SAOS-2;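 note: growth inhibition of human Saos-2 cells determined by a cell viability assay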
Description: SANGER: Inhibition of human Saos-2 cell growth in a cell viability assay.

IA-LM = format: functional, cell-based, Homo sapiens; conditions: Homo sapiens, IA-LM;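 note: cell viability assay measuring growth inhibition of human IA-LM cells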
Description: SANGER: Inhibition of human IA-LM cell growth in a cell viability assay.

NCI-H1648 = format: functional, cell-based, Homo sapiens; conditions: Homo sapiens, NCI-H1648;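 note: cell viability assay measuring inhibition of NCI-H1648 cell growth, from the Sanger screening data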
Description: SANGER: Inhibition of human NCI-H1648 cell growth in a cell viability assay.

EFM-19 = format: functional, cell-based, Homo sapiens; conditions: Homo sapiens, EFM-19;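 note: growth inhibition of human EFM-19 cells, measured in a cell viability assay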
Description: SANGER: Inhibition of human EFM-19 cell growth in a cell viability assay.

LB2518-MEL = format: functional, cell-based, Homo sapiens; conditions: Homo sapiens, LB2518-MEL;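 note: growth inhibition of human LB2518-MEL cells, measured with a cell viability assay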
Description: SANGER: Inhibition of human LB2518-MEL cell growth in a cell viability assay.

DOHH-2 = format: functional, cell-based; conditions: Homo sapiens;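 note: growth inhibition of human DOHH-2 cells, read out with a cell viability assay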
Description: SANGER: Inhibition of human DOHH-2 cell growth in a cell viability assay.

HT = format: functional, cell-based; conditions: Homo sapiens
Description: SANGER: Inhibition of human HT cell growth in a cell viability assay.

ES6 = format: functional, cell-based, Homo sapiens; conditions: Homo sapiens, ES6;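 note: growth inhibition of human ES6 cells, read out with a cell viability assay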
Description: SANGER: Inhibition of human ES6 cell growth in a cell viability assay.

HSC-2 = format: functional, cell-based, Homo sapiens; conditions: Homo sapiens, HSC-2;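 note: growth inhibition of human HSC-2 cells, read out by a cell viability assay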
Description: SANGER: Inhibition of human HSC-2 cell growth in a cell viability assay.

SW837 = format: functional, cell-based, Homo sapiens; conditions: Homo sapiens, SW837;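 note: growth inhibition of SW837 cells, determined with a cell viability assay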
Description: SANGER: Inhibition of human SW837 cell growth in a cell viability assay.

HOP-92 = format: functional, cell-based, Homo sapiens; conditions: Homo sapiens, HOP-92;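 note: cell viability readout, with IC50 reflecting inhibition of HOP-92 cell growth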
Description: SANGER: Inhibition of human HOP-92 cell growth in a cell viability assay.

KYSE-410 = format: functional, cell-based, Homo sapiens; conditions: Homo sapiens, KYSE-410;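 note: growth inhibition of KYSE-410 cells, measured through a cell viability readout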
Description: SANGER: Inhibition of human KYSE-410 cell growth in a cell viability assay.

MFM-223 = format: functional, cell-based, Homo sapiens; conditions: Homo sapiens, MFM-223
Description: SANGER: Inhibition of human MFM-223 cell growth in a cell viability assay.

MN-60 = format: functional, cell-based; conditions: Homo sapiens;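 note: growth inhibition of the MN-60 cell line, determined with a cell viability assay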
Description: SANGER: Inhibition of human MN-60 cell growth in a cell viability assay.

U2OS = format: functional, cell-based, Homo sapiens, U-2-OS; conditions: Homo sapiens, U2OS;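 note: growth inhibition of human U-2-OS cells, determined with a cell viability assay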
Description: SANGER: Inhibition of human U-2-OS cell growth in a cell viability assay.

KARPAS-45 = format: functional, cell-based; conditions: Homo sapiens;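 note: inhibition of cell line growth, read out through a viability assay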
Description: SANGER: Inhibition of human KARPAS-45 cell growth in a cell viability assay.

LCLC-97TM1 = format: functional, cell-based, Homo sapiens; conditions: Homo sapiens, LCLC-97TM1;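 note: cell viability assay measuring growth inhibition of human LCLC-97TM1 cells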
Description: SANGER: Inhibition of human LCLC-97TM1 cell growth in a cell viability assay.

CTV-1 = format: functional, cell-based; conditions: Homo sapiens;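 note: growth inhibition of the cell line, read out with a cell viability assay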
Description: SANGER: Inhibition of human CTV-1 cell growth in a cell viability assay.

SBC-1 = format: functional, cell-based; conditions: Homo sapiens;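 note: cell viability assay measuring growth inhibition of the SBC-1 cell line, IC50 being the concentration that halves growth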
Description: SANGER: Inhibition of human SBC-1 cell growth in a cell viability assay.

KURAMOCHI = format: functional, cell-based; conditions: Homo sapiens;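 note: growth inhibition of KURAMOCHI cells, read out with a cell viability assay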
Description: SANGER: Inhibition of human KURAMOCHI cell growth in a cell viability assay.

GI-1 = format: functional, cell-based, Homo sapiens; conditions: Homo sapiens, GI-1;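 note: growth inhibition of human GI-1 cells, measured with a cell viability readout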
Description: SANGER: Inhibition of human GI-1 cell growth in a cell viability assay.

HT-144 = format: functional, cell-based, Homo sapiens; conditions: Homo sapiens, HT-144
Description: SANGER: Inhibition of human HT-144 cell growth in a cell viability assay.

VM-CUB-1 = format: functional, cell-based; conditions: Homo sapiens;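 note: cell viability assay measuring growth inhibition of the human VM-CUB-1 cell line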
Description: SANGER: Inhibition of human VM-CUB-1 cell growth in a cell viability assay.

NCI-H441 = format: functional, cell-based; conditions: Homo sapiens;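 note: growth inhibition of NCI-H441 cells, read out with a cell viability assay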
Description: SANGER: Inhibition of human NCI-H441 cell growth in a cell viability assay.

KYSE-150 cell line = format: functional, cell-based, Homo sapiens; conditions: Homo sapiens, KYSE-150;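 note: growth inhibition of human KYSE-150 cells, read out with a cell viability assay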
Description: SANGER: Inhibition of human KYSE-150 cell growth in a cell viability assay.

LS-411N = format: functional, cell-based, Homo sapiens; conditions: Homo sapiens, LS-411N
SK-MEL-30 = format: functional, cell-based; conditions: Homo sapiens;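 note: growth inhibition of SK-MEL-30 cells, determined with a cell viability assay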
Description: SANGER: Inhibition of human SK-MEL-30 cell growth in a cell viability assay.

8-MG-BA = format: functional, cell-based, Homo sapiens; conditions: Homo sapiens, 8-MG-BA;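 note: growth inhibition of 8-MG-BA cells, read out with a cell viability assay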
Description: SANGER: Inhibition of human 8-MG-BA cell growth in a cell viability assay.

BT-20 = format: functional, cell-based, Homo sapiens; conditions: Homo sapiens, BT-20;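 note: cell viability assay measuring suppression of growth in human BT-20 cells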
Description: SANGER: Inhibition of human BT-20 cell growth in a cell viability assay.

ACHN = format: functional, cell-based, Homo sapiens; conditions: Homo sapiens, ACHN;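 note: cell viability read-out used to gauge how strongly growth of human ACHN cells is suppressed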
Description: SANGER: Inhibition of human ACHN cell growth in a cell viability assay.

HEL = format: functional, cell-based, Homo sapiens; conditions: Homo sapiens, HEL;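 note: growth inhibition of HEL cells, read out with a cell viability assay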
Description: SANGER: Inhibition of human HEL cell growth in a cell viability assay.

SNU-387 = format: functional, cell-based, Homo sapiens; conditions: Homo sapiens, SNU-387
Description: SANGER: Inhibition of human SNU-387 cell growth in a cell viability assay.

NCI-H720 = format: functional, cell-based; conditions: Homo sapiens;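 note: growth inhibition of human NCI-H720 cells determined by a cell viability assay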
Description: SANGER: Inhibition of human NCI-H720 cell growth in a cell viability assay.

SK-LU-1 = format: functional, cell-based, Homo sapiens; conditions: Homo sapiens, SK-LU-1;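 note: cell viability assay measuring growth inhibition of human SK-LU-1 cells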
Description: SANGER: Inhibition of human SK-LU-1 cell growth in a cell viability assay.

ES4 = format: functional, cell-based, Homo sapiens; conditions: Homo sapiens, ES4;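 note: growth inhibition of human ES4 cells, read out by a cell viability assay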
Description: SANGER: Inhibition of human ES4 cell growth in a cell viability assay.

DB = format: functional, cell-based; conditions: Homo sapiens
Description: SANGER: Inhibition of human DB cell growth in a cell viability assay.

MZ1-PC = format: functional, cell-based, Homo sapiens; conditions: Homo sapiens, MZ1-PC;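 note: cell viability assay measuring growth inhibition of human MZ1-PC cells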
Description: SANGER: Inhibition of human MZ1-PC cell growth in a cell viability assay.

NMC-G1 = format: functional, cell-based, Homo sapiens; conditions: Homo sapiens, NMC-G1;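 note: growth inhibition of the NMC-G1 cell line, measured with a cell viability read-out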
Description: SANGER: Inhibition of human NMC-G1 cell growth in a cell viability assay.

OVCAR-4 = format: functional, cell-based, Homo sapiens; conditions: Homo sapiens, OVCAR-4;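 note: growth inhibition of human OVCAR-4 cells, measured with a cell viability assay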
Description: SANGER: Inhibition of human OVCAR-4 cell growth in a cell viability assay.

A101D = format: functional, cell-based, Homo sapiens; conditions: Homo sapiens, A101D;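 note: growth inhibition of the cell line, measured with a viability assay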
Description: SANGER: Inhibition of human A101D cell growth in a cell viability assay.

SNU-5 = format: functional, cell-based; conditions: Homo sapiens;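 note: cell viability readout used to measure growth inhibition in human NCI-SNU-5 cells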
Description: SANGER: Inhibition of human NCI-SNU-5 cell growth in a cell viability assay.

SW626 = format: functional, cell-based, Homo sapiens; conditions: Homo sapiens, SW626;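 note: growth inhibition of SW626 cells, measured with a cell viability assay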
Description: SANGER: Inhibition of human SW626 cell growth in a cell viability assay.

NCI-H446 = format: functional, cell-based; conditions: Homo sapiens;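 note: growth inhibition of NCI-H446 cells determined by a cell viability assay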
Description: SANGER: Inhibition of human NCI-H446 cell growth in a cell viability assay.

JEG-3 = format: functional, cell-based, Homo sapiens; conditions: Homo sapiens, JEG-3;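 note: growth inhibition of human JEG-3 cells, read out with a cell viability assay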
Description: SANGER: Inhibition of human JEG-3 cell growth in a cell viability assay.

PFSK-1 = format: functional, cell-based, Homo sapiens; conditions: Homo sapiens, PFSK-1;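 note: cell viability assay measuring how strongly compounds suppress growth of human PFSK-1 cells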
Description: SANGER: Inhibition of human PFSK-1 cell growth in a cell viability assay.

8505C = format: functional, cell-based, Homo sapiens; conditions: Homo sapiens, 8505C
Description: SANGER: Inhibition of human 8505C cell growth in a cell viability assay.

NCI-H1650 = format: functional, cell-based, Homo sapiens; conditions: Homo sapiens, NCI-H1650;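 note: growth inhibition of human NCI-H1650 cells measured by a cell viability assay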
Description: SANGER: Inhibition of human NCI-H1650 cell growth in a cell viability assay.

NCI-H2342 = format: functional, cell-based; conditions: Homo sapiens;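 note: growth inhibition of the cancer cell line, determined with a cell viability assay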
Description: SANGER: Inhibition of human NCI-H2342 cell growth in a cell viability assay.

SW1417 = format: functional, cell-based, Homo sapiens; conditions: Homo sapiens, SW1417;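 note: growth inhibition of human SW1417 cells, read out with a cell viability assay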
Description: SANGER: Inhibition of human SW1417 cell growth in a cell viability assay.

NCI-H1623 = format: functional, cell-based, Homo sapiens; conditions: Homo sapiens, NCI-H1623;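 note: cell viability assay used as the read-out for growth inhibition of NCI-H1623 cells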
Description: SANGER: Inhibition of human NCI-H1623 cell growth in a cell viability assay.

MFE-280 = format: functional, cell-based, Homo sapiens; conditions: Homo sapiens, MFE-280;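 note: growth inhibition of MFE-280 cells, determined with a cell viability readout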
Description: SANGER: Inhibition of human MFE-280 cell growth in a cell viability assay.

With O=C(NOCC1CC1)c1ccc(F)c(F)c1Nc1ccc(I)cc1Cl [CI-1040] the IC50 (JVM-2) was > 10000 nM, the IC50 (HCC1569) was > 10000 nM and the IC50 (SAOS-2) was > 10000 nM. For the same molecule, the IC50 (IA-LM) was > 10000 nM, the IC50 (NCI-H1648) was > 10000 nM and the IC50 (EFM-19) was > 10000 nM. For the same molecule, the IC50 (LB2518-MEL) was 716 nM, the IC50 (DOHH-2) was 8200 nM and the IC50 (HT) was > 10000 nM. The IC50 (ES6) was > 10000 nM, the IC50 (HSC-2) was > 10000 nM and the IC50 (SW837) was > 10000 nM. For the same molecule, the IC50 (HOP-92) was 4260 nM, the IC50 (KYSE-410) was > 10000 nM and the IC50 (MFM-223) was > 10000 nM. For the same molecule, the IC50 (MN-60) was > 10000 nM, the IC50 (U2OS) was 3670 nM and the IC50 (KARPAS-45) was > 10000 nM. For the same molecule, the IC50 (LCLC-97TM1) was 1920 nM, the IC50 (CTV-1) was > 10000 nM and the IC50 (SBC-1) was 8870 nM. The IC50 (KURAMOCHI) was > 10000 nM, the IC50 (GI-1) was > 10000 nM and the IC50 (HT-144) was 647 nM. The IC50 (VM-CUB-1) was > 10000 nM, the IC50 (NCI-H441) was > 10000 nM and the IC50 (KYSE-150 cell line) was > 10000 nM. For the same molecule, the IC50 (LS-411N) was 1410 nM, the IC50 (SK-MEL-30) was 7250 nM and the IC50 (8-MG-BA) was > 10000 nM. The IC50 (BT-20) was > 10000 nM, the IC50 (ACHN) was 7030 nM and the IC50 (HEL) was > 10000 nM. The IC50 (SNU-387) was > 10000 nM, the IC50 (NCI-H720) was > 10000 nM and the IC50 (SK-LU-1) was 3690 nM. For the same molecule, the IC50 (ES4) was 8870 nM, the IC50 (DB) was 2590 nM and the IC50 (MZ1-PC) was > 10000 nM. The IC50 (NMC-G1) was > 10000 nM, the IC50 (OVCAR-4) was > 10000 nM and the IC50 (A101D) was 214 nM. For the same molecule, the IC50 (SNU-5) was 3680 nM, the IC50 (SW626) was 4040 nM and the IC50 (NCI-H446) was > 10000 nM. For the same molecule, the IC50 (JEG-3) was > 10000 nM, the IC50 (PFSK-1) was > 10000 nM and the IC50 (8505C) was 3900 nM. For the same molecule, the IC50 (NCI-H1650) was > 10000 nM, the IC50 (NCI-H2342) was > 10000 nM and the IC50 (SW1417) was 9570 nM. For the same molecule, the IC50 (NCI-H1623) was > 10000 nM and the IC50 (MFE-280) was 6860 nM.
With CC(=O)O[C@@]12CO[C@@H]1C[C@H](O)[C@@]1(C)C(=O)[C@H](O)C3=C(C)[C@@H](OC(=O)[C@H](O)[C@@H](NC(=O)OC(C)(C)C)c4ccccc4)C[C@@](O)([C@@H](OC(=O)c4ccccc4)[C@H]21)C3(C)C [DOCETAXEL] the IC50 (JVM-2) was > 10 nM, the IC50 (HCC1569) was > 10 nM and the IC50 (SAOS-2) was 1.68 nM. The IC50 (IA-LM) was > 10 nM, the IC50 (NCI-H1648) was 6.01 nM and the IC50 (EFM-19) was 2.15 nM. The IC50 (LB2518-MEL) was > 10 nM, the IC50 (DOHH-2) was 6.3 nM and the IC50 (HT) was > 10 nM. The IC50 (ES6) was > 10 nM, the IC50 (HSC-2) was 0.755 nM and the IC50 (SW837) was > 10 nM. For the same molecule, the IC50 (HOP-92) was 7.3 nM, the IC50 (KYSE-410) was 1.24 nM and the IC50 (MFM-223) was 6.16 nM. For the same molecule, the IC50 (MN-60) was > 10 nM, the IC50 (U2OS) was 1.75 nM and the IC50 (KARPAS-45) was 6.52 nM. For the same molecule, the IC50 (LCLC-97TM1) was 1.44 nM, the IC50 (CTV-1) was 3.37 nM and the IC50 (SBC-1) was 0.43 nM. For the same molecule, the IC50 (KURAMOCHI) was > 10 nM, the IC50 (GI-1) was 0.528 nM and the IC50 (HT-144) was 0.157 nM. The IC50 (VM-CUB-1) was 1.05 nM, the IC50 (NCI-H441) was > 10 nM and the IC50 (KYSE-150 cell line) was 4.99 nM. It also gave an IC50 (LS-411N) of 3.14 nM, an IC50 (SK-MEL-30) of 7.32 nM and an IC50 (8-MG-BA) of 0.589 nM. For the same molecule, the IC50 (BT-20) was 3.76 nM, the IC50 (ACHN) was > 10 nM and the IC50 (HEL) was > 10 nM. The IC50 (SNU-387) was 2.61 nM, the IC50 (NCI-H720) was 0.58 nM and the IC50 (SK-LU-1) was > 10 nM. It also gave an IC50 (ES4) of 1.55 nM, an IC50 (DB) of 1.78 nM and an IC50 (MZ1-PC) of 1.18 nM. The IC50 (NMC-G1) was 0.517 nM, the IC50 (OVCAR-4) was 5.86 nM and the IC50 (A101D) was > 10 nM. For the same molecule, the IC50 (SNU-5) was 5.45 nM, the IC50 (SW626) was 6.24 nM and the IC50 (NCI-H446) was 2.43 nM. For the same molecule, the IC50 (JEG-3) was 2.82 nM, the IC50 (PFSK-1) was 0.657 nM and the IC50 (8505C) was 0.854 nM. The IC50 (NCI-H1650) was > 10 nM, the IC50 (NCI-H2342) was > 10 nM and the IC50 (SW1417) was 2.76 nM. The IC50 (NCI-H1623) was 8.56 nM and the IC50 (MFE-280) was > 10 nM.
